Columns and labels:
Format in all cases: functional
Klebsiella pneumoniae [1] = experiment: Antimicrobial activity against community-acquired Klebsiella pneumoniae obtained from patient with intra-abdominal infection assessed as susceptible isolates by EUCAST method in presence of beta-lactamase inhibitor Sulbactam
Klebsiella pneumoniae [2] = experiment: Antimicrobial activity against hospital-acquired Klebsiella pneumoniae obtained from patient with intra-abdominal infection assessed as susceptible isolates by EUCAST method in presence of beta-lactamase inhibitor Sulbactam
Klebsiella pneumoniae [3] = experiment: Antimicrobial activity against community-acquired Klebsiella pneumoniae expressing extended spectrum beta-lactamase obtained from patient with intra-abdominal infection assessed as susceptible isolates by EUCAST method in presence of beta-lactamase inhibitor Sulbactam
Klebsiella pneumoniae [4] = experiment: Antimicrobial activity against hospital-acquired Klebsiella pneumoniae expressing extended spectrum beta-lactamase obtained from patient with intra-abdominal infection assessed as susceptible isolates by EUCAST method in presence of beta-lactamase inhibitor Sulbactam
Escherichia coli [5] = experiment: Antimicrobial activity against community-acquired Escherichia coli obtained from patient with intra-abdominal infection assessed as susceptible isolates by EUCAST method in presence of beta-lactamase inhibitor Sulbactam
Escherichia coli [6] = experiment: Antimicrobial activity against hospital-acquired Escherichia coli obtained from patient with intra-abdominal infection assessed as susceptible isolates by EUCAST method in presence of beta-lactamase inhibitor Sulbactam
Escherichia coli [7] = experiment: Antimicrobial activity against community-acquired Escherichia coli expressing extended spectrum beta-lactamase obtained from patient with intra-abdominal infection assessed as susceptible isolates by EUCAST method in presence of beta-lactamase inhibitor Sulbactam
Escherichia coli [8] = experiment: Antimicrobial activity against hospital-acquired Escherichia coli expressing extended spectrum beta-lactamase obtained from patient with intra-abdominal infection assessed as susceptible isolates by EUCAST method in presence of beta-lactamase inhibitor Sulbactam
Klebsiella pneumoniae [9] = experiment: Antimicrobial activity against community-acquired Klebsiella pneumoniae obtained from patient with intra-abdominal infection assessed as susceptible isolates by EUCAST method
Klebsiella pneumoniae [10] = experiment: Antimicrobial activity against hospital-acquired Klebsiella pneumoniae obtained from patient with intra-abdominal infection assessed as susceptible isolates by EUCAST method
Klebsiella pneumoniae [11] = experiment: Antimicrobial activity against community-acquired Klebsiella pneumoniae expressing extended spectrum beta-lactamase obtained from patient with intra-abdominal infection assessed as susceptible isolates by EUCAST method
Klebsiella pneumoniae [12] = experiment: Antimicrobial activity against hospital-acquired Klebsiella pneumoniae expressing extended spectrum beta-lactamase obtained from patient with intra-abdominal infection assessed as susceptible isolates by EUCAST method
Escherichia coli [13] = experiment: Antimicrobial activity against hospital-acquired Escherichia coli obtained from patient with intra-abdominal infection assessed as susceptible isolates by EUCAST method
Escherichia coli [14] = experiment: Antimicrobial activity against community-acquired Escherichia coli expressing extended spectrum beta-lactamase obtained from patient with intra-abdominal infection assessed as susceptible isolates by EUCAST method
Escherichia coli [15] = experiment: Antimicrobial activity against hospital-acquired Escherichia coli expressing extended spectrum beta-lactamase obtained from patient with intra-abdominal infection assessed as susceptible isolates by EUCAST method
Escherichia coli [16] = experiment: Antimicrobial activity against community-acquired Escherichia coli obtained from patient with intra-abdominal infection assessed as susceptible isolates by EUCAST method

Compound: CC1(C)S[C@@H]2[C@H](NC(=O)[C@H](N)c3ccccc3)C(=O)N2[C@H]1C(=O)O [AMPICILLIN]
- Activity (Klebsiella pneumoniae [1]): 79.2%
- Activity (Klebsiella pneumoniae [2]): 62.9%
- Activity (Klebsiella pneumoniae [3]): 0%
- Activity (Klebsiella pneumoniae [4]): 6.4%
- Activity (Escherichia coli [5]): 53%
- Activity (Escherichia coli [6]): 44.5%
- Activity (Escherichia coli [7]): 5.4%
- Activity (Escherichia coli [8]): 9.1%

Compound: O=C(O)c1cn(C2CC2)c2cc(N3CCNCC3)c(F)cc2c1=O [CIPROFLOXACIN]
- Activity (Klebsiella pneumoniae [9]): 94.4%
- Activity (Klebsiella pneumoniae [10]): 79.2%
- Activity (Klebsiella pneumoniae [11]): 50%
- Activity (Klebsiella pneumoniae [12]): 29.8%
- Activity (Escherichia coli [13]): 78.3%
- Activity (Escherichia coli [14]): 29.7%
- Activity (Escherichia coli [15]): 22.3%

Compound: CC(C)(O/N=C(\C(=O)N[C@@H]1C(=O)N2C(C(=O)[O-])=C(C[n+]3ccccc3)CS[C@H]12)c1csc(N)n1)C(=O)O [CEFTAZIDIME]
- Activity (Klebsiella pneumoniae [9]): 98.6%
- Activity (Klebsiella pneumoniae [10]): 91%
- Activity (Klebsiella pneumoniae [11]): 0%
- Activity (Klebsiella pneumoniae [12]): 0%
- Activity (Escherichia coli [16]): 97.2%
- Activity (Escherichia coli [13]): 94.3%
- Activity (Escherichia coli [14]): 8.1%
- Activity (Escherichia coli [15]): 5.8%

Compound: NCC[C@H](O)C(=O)N[C@@H]1C[C@H](N)[C@@H](O[C@H]2O[C@H](CN)[C@@H](O)[C@H](O)[C@H]2O)[C@H](O)[C@H]1O[C@H]1O[C@H](CO)[C@@H](O)[C@H](N)[C@H]1O [AMIKACIN]
- Activity (Klebsiella pneumoniae [9]): 98.6%
- Activity (Klebsiella pneumoniae [10]): 92.7%
- Activity (Klebsiella pneumoniae [11]): 75%
- Activity (Klebsiella pneumoniae [12]): 66%
- Activity (Escherichia coli [16]): 98.5%
- Activity (Escherichia coli [13]): 97%
- Activity (Escherichia coli [14]): 59.5%
- Activity (Escherichia coli [15]): 53.7%

Compound: CO/N=C(\C(=O)N[C@@H]1C(=O)N2C(C(=O)O)=C(COC(C)=O)CS[C@H]12)c1csc(N)n1 [CEFOTAXIME]
- Activity (Klebsiella pneumoniae [9]): 100%
- Activity (Klebsiella pneumoniae [10]): 92.1%
- Activity (Klebsiella pneumoniae [11]): 0%
- Activity (Klebsiella pneumoniae [12]): 6.4%
- Activity (Escherichia coli [16]): 98.7%
- Activity (Escherichia coli [13]): 95.8%
- Activity (Escherichia coli [14]): 0%
- Activity (Escherichia coli [15]): 3.3%

Compound: C[C@@H](O)[C@H]1C(=O)N2C(C(=O)O)=C(SCCNC=N)C[C@H]12 [IMIPENEM ANHYDROUS]
- Activity (Klebsiella pneumoniae [9]): 100%
- Activity (Klebsiella pneumoniae [10]): 94.9%
- Activity (Klebsiella pneumoniae [11]): 100%
- Activity (Klebsiella pneumoniae [12]): 89.4%
- Activity (Escherichia coli [16]): 99.8%
- Activity (Escherichia coli [13]): 99.6%
- Activity (Escherichia coli [14]): 100%
- Activity (Escherichia coli [15]): 100%

Compound: CO/N=C(\C(=O)N[C@@H]1C(=O)N2C(C(=O)O)=C(CSc3nc(=O)c(O)nn3C)CS[C@H]12)c1csc(N)n1 [CEFTRIAXONE]
- Activity (Klebsiella pneumoniae [9]): 98.6%
- Activity (Klebsiella pneumoniae [10]): 90.5%
- Activity (Klebsiella pneumoniae [11]): 0%
- Activity (Klebsiella pneumoniae [12]): 4.3%
- Activity (Escherichia coli [16]): 98.3%
- Activity (Escherichia coli [13]): 95.8%
- Activity (Escherichia coli [14]): 2.7%
- Activity (Escherichia coli [15]): 3.3%

Compound: C[C@@H](O)[C@H]1C(=O)N2C(C(=O)O)=C(S[C@@H]3CN[C@H](C(=O)Nc4cccc(C(=O)O)c4)C3)[C@H](C)[C@H]12 [ERTAPENEM]
- Activity (Klebsiella pneumoniae [9]): 100%
- Activity (Klebsiella pneumoniae [10]): 93.3%
- Activity (Klebsiella pneumoniae [11]): 100%
- Activity (Klebsiella pneumoniae [12]): 83%
- Activity (Escherichia coli [16]): 99.3%
- Activity (Escherichia coli [13]): 98.9%
- Activity (Escherichia coli [14]): 100%
- Activity (Escherichia coli [15]): 99.2%

Compound: CO/N=C(\C(=O)N[C@@H]1C(=O)N2C(C(=O)[O-])=C(C[N+]3(C)CCCC3)CS[C@H]12)c1csc(N)n1 [CEFEPIME]
- Activity (Klebsiella pneumoniae [9]): 98.6%
- Activity (Klebsiella pneumoniae [10]): 91.6%
- Activity (Klebsiella pneumoniae [11]): 0%
- Activity (Klebsiella pneumoniae [12]): 10.6%
- Activity (Escherichia coli [16]): 98.5%
- Activity (Escherichia coli [14]): 8.1%
- Activity (Escherichia coli [15]): 9.9%

Compound: C[C@H]1COc2c(N3CCN(C)CC3)c(F)cc3c(=O)c(C(=O)O)cn1c23.C[C@H]1COc2c(N3CCN(C)CC3)c(F)cc3c(=O)c(C(=O)O)cn1c23.O [LEVOFLOXACIN]
- Activity (Klebsiella pneumoniae [9]): 97.2%
- Activity (Klebsiella pneumoniae [10]): 83.2%
- Activity (Klebsiella pneumoniae [11]): 50%
- Activity (Klebsiella pneumoniae [12]): 40.4%
- Activity (Escherichia coli [16]): 87%
- Activity (Escherichia coli [13]): 79.8%
- Activity (Escherichia coli [14]): 32.4%
- Activity (Escherichia coli [15]): 24.8%
